Measured values: patent publication US12121521B2, “Uses of salt-inducible kinase (SIK) inhibitors for treating osteoporosis” (The General Hospital Corporation, priority 2016, dated 2024)

Experiments:
SIK2 = biological target: T1, SIK2 (Homo sapiens, UniProt Q9H0K1); assay: Kd determination for SIK2 (bound kinase measured by qPCR); format: binding
T1 construct: T7 phage fusion (most kinases) or DNA tag after HEK-293 expression; purchased DiscoverX (Fremont, CA), ScanEDGE; host or cells: T7 phage in E. coli BL21-derived host, or HEK-293
Description: FIGS. 5A to 5J: Small molecule SIK inhibitors regulate SOST and RANKL expression by osteocytes. (FIG. 5A) Structure of YKL-04-114 (top panel, left), YKL-05-093 (top panel, right), and YKL-05-093 Kd determination curves for SIK2 (bottom panels). For the Kd determination curves, the y-axis represents the amount of bound kinase measured by qPCR (see methods), and the x-axis represents the corresponding compound concentration in nM. (FIG. 5B) Ocy454 cells were treated with YKL-04-114 (10 μM) for the indicated times, followed by immunoblotting of whole cell lysates as indicated. (FIG. 5C) Ocy454 cells were treated with the indicated concentrations of YKL-04-114 for 60 minutes, followed by immunoblotting of whole cell lysates as indicated. […] Right: quantification of nuclear fraction (defined as nuclear/total) of HDAC4 or CRTC2. * indicates p<0.01 comparing treatment vs vehicle. […] Quantification of HDAC4 S246 phosphorylation, as assessed by densitometric analysis of immunoblots, is shown. * indicates p<0.01 comparing treatment vs vehicle. # indicates p<0.05 for the same comparison. […] (FIG. 5G) Control and SIK2/3 deficient cells were treated with YKL-05-093 (0.5 μM) for 4 hours and SOST transcript abundance was measured by RT-qPCR. (FIG. 5H) Control and CRTC2 shRNA cells were treated with PTH (1 nM) or YKL-05-093 (0.5 μM) for 4 hours and RANKL transcript abundance was measured by RT-qPCR. […]

[1] = in vivo; cited from earlier work

T1 sequence (Q9H0K1 whole entry, the tested form may be a part): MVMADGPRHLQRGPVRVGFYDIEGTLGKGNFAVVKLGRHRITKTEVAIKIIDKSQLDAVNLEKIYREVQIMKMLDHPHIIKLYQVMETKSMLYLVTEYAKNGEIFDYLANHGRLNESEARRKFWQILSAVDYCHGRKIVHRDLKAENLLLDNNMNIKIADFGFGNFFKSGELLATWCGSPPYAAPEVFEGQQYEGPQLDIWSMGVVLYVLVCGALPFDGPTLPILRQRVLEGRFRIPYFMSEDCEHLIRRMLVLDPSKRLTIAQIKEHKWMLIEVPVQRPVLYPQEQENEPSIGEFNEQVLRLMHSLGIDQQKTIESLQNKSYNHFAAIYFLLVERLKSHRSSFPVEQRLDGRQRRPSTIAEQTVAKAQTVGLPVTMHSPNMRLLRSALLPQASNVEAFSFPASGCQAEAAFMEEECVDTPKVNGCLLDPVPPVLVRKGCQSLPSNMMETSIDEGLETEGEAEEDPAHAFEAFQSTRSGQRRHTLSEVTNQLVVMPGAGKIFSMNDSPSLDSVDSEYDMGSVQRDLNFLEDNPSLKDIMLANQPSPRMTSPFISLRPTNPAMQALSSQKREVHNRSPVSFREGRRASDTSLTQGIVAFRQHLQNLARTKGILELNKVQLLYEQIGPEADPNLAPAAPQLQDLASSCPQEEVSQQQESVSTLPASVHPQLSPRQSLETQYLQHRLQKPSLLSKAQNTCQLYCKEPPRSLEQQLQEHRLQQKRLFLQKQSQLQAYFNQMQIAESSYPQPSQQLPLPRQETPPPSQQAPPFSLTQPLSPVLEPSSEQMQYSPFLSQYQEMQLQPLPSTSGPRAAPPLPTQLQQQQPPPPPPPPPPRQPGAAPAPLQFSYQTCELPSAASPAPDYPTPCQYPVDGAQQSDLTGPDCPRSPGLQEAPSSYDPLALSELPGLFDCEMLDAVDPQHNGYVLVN

Kd (SIK2) [nM] | SMILES | tolerability [1]
7.1 | COc1ccc(N2C(=O)N(c3c(C)cccc3C)Cc3cnc(Nc4ccc(C5CCN(C)CC5)c(OC)c4)nc32)c(OC)c1 [YKL-05-093] | 
 | COc1ccc(N2C(=O)N(c3c(C)cccc3Cl)Cc3cnc(Nc4ccc(C5CCN(C)CC5)cc4OC)nc32)nc1 [YKL-05-099] | well-tolerated
